Data as given in PMC7125519 (European Journal of Medicinal Chemistry, 2016).

Assays:
[1] = system: human embryonic lung (HEL) cells; conditions: HEL cell cultures (Table 5); microscopically detectable alteration of normal cell morphology
[2] = system: immortalized human dermal microvascular endothelial cells (HMEC-1); assay: Cytostatic activity, HMEC-1 proliferation; format: cell-based; conditions: HMEC-1, read-out: IC50 HMEC-1, inhibit cell proliferation by 50%
[3] = system: murine leukemia (L1210) cells; conditions: read-out: IC50 L1210; inhibit cell proliferation by 50%; cited from earlier work
[4] = system: human cervix carcinoma (HeLa) cells; conditions: read-out: IC50 HeLa; inhibit cell proliferation by 50%; cited from earlier work
[5] = system: human T-lymphocyte (CEM) cells; conditions: read-out: IC50 CEM; inhibit cell proliferation by 50%; cited from earlier work
TK− VZV 07-1 strain = format: cell-based, varicella-zoster virus
TK+ VZV Oka strain = format: cell-based, varicella-zoster virus
Human Coronavirus (229E) = format: cell-based; conditions: read-out: Antiviral activity EC50 Human Coronavirus (229E)

Which Minimum cytotoxic concentration [1] does the source give for Cc1cn([C@H]2C[C@H](F)[C@@H](CO)O2)c(=O)[nH]c1=O [Alovudine] here?
The Minimum cytotoxic concentration was over 250 µM.

With Nc1ccn(C[C@@H](CO)OCP(=O)(O)O)c(=O)n1.O.O [Cidofovir] as the molecule, how does the Minimum cytotoxic concentration [1] read?
Its Minimum cytotoxic concentration is over 250 µM.

With Nc1nc(O)c2ncn(COC(CO)CO)c2n1 [Ganciclovir] as the molecule, how does the Minimum cytotoxic concentration [1] read?
The Minimum cytotoxic concentration was over 100 µM.

Which Minimum cytotoxic concentration [1] does the source give for NC(=O)c1ncn([C@@H]2O[C@H](CO)[C@@H](O)[C@H]2O)n1 [Ribavirin] here?
Its Minimum cytotoxic concentration is at least 250 µM.

With CCOP(=O)(OCC)[C@@H]1C[C@@H](Cn2c(=O)n(C(=O)c3ccccc3)c(=O)c3ccccc32)ON1Cc1ccccc1 (relative stereo) [trans-13a, Diethyl trans-{5-[(3-benzoyl-2,4-dioxo-3,4-dihydroquinazolin-1(2H)-yl)methyl]-2-benzylisoxazolidin-3-yl}phosphonate] as the molecule, how does the IC50 [2] read?
Its IC50 is over 250 µM.

With CCOP(=O)(OCC)[C@H]1C[C@@H](Cn2c(=O)n(C(=O)c3ccccc3)c(=O)c3ccccc32)ON1C [cis-12a] as the molecule, how does the IC50 [3] read?
The IC50 was over 200 µM.

What about the IC50 [4] of the same molecule?
The IC50 was over 200 µM.

With Nc1nc2c(ncn2COCCO)c(=O)[nH]1 [Acyclovir] as the molecule, how does the Minimum cytotoxic concentration [1] read?
The Minimum cytotoxic concentration was over 250 µM.

Which IC50 [3] does the source give for CCOP(=O)(OCC)[C@@H]1C[C@@H](Cn2ccc(=O)n(C(=O)c3ccccc3)c2=O)ON1C [trans-11a] here?
Its IC50 is over 200 µM.

And the IC50 [5]?
Its IC50 is over 200 µM.

What about the IC50 [4] of the same molecule?
The IC50 was over 200 µM.

Which “fold more active against the TK– strain compared to acyclovir” value (TK− VZV 07-1 strain) does the source give for CCOP(=O)(OCC)C1CC(Cn2c(=O)n(Cc3ccc(F)cc3)c(=O)c3ccccc32)ON1Cc1ccccc1 (stereo not drawn) [trans-15d/cis-15d (95:5)] here?
Its value is 10–14 fold.

What about the “fold less active against the TK+ virus compared to acyclovir” value (TK+ VZV Oka strain) of the same molecule?
Its value is 4–6 fold.

For CCOP(=O)(OCC)C1CC(Cn2c(=O)n(Cc3ccccc3F)c(=O)c3ccccc32)ON1Cc1ccccc1 (stereo not drawn) [cis-15b/trans-15b (87:13)], which “fold more active against the TK– strain compared to acyclovir” value (TK− VZV 07-1 strain) is on record?
The value was 10–14 fold.

What about the “fold less active against the TK+ virus compared to acyclovir” value (TK+ VZV Oka strain) of the same molecule?
Its value is 4–6 fold.

What does the source list for CCOP(=O)(OCC)[C@@H]1C[C@@H](Cn2c(=O)n(C(=O)c3ccc(F)cc3)c(=O)c3ccccc32)ON1C (relative stereo) [trans-12d, Diethyl trans-{5-[(3-(4-fluorobenzoyl)-2,4-dioxo-3,4-dihydroquinazolin-1(2H)-yl)methyl]-2-methylisoxazolidin-3-yl}phosphonate]?
IC50 [2]: > 250 µM; Minimum cytotoxic concentration [1]: ≥100 ± 0 µM

What does the source list for CCOP(=O)(OCC)[C@H]1C[C@@H](Cn2ccc(=O)n(C(=O)c3ccccc3)c2=O)ON1C [cis-11a]?
IC50 [3]: > 200 µM; IC50 [5]: > 200 µM; IC50 [4]: > 200 µM

With CCOP(=O)(OCC)[C@@H]1C[C@@H](Cn2c(=O)n(C(=O)c3ccccc3)c(=O)c3ccccc32)ON1C [trans-12a] as the molecule, how does the IC50 [3] read?
The IC50 was at least 159 µM.

With Nc1ccn([C@H]2CC[C@@H](CO)O2)c(=O)n1 [Zalcitabine] as the molecule, how does the Minimum cytotoxic concentration [1] read?
Its Minimum cytotoxic concentration is over 250 µM.

B1: UDA: Urtica dioica agglutinin (UDA), reference compound (protein, UniProt P11218 24-372, looked up)
Lectin/endochitinase 1: QRCGSQGGGGTCPALWCCSIWGWCGDSEPYCGRTCENKCWSGERSDHRCGAAVGNPPCGQDRCCSVHGWCGGGNDYCSGSKCQYRCSSSVRGPRVALSGNSTANSIGNVVVTEPLFDQMFSHRKDCPSQGFYSYHSFLVAAESFPAFGTIGDVATRKREVAAFLAHISQATSGERSDVENPHAWGLCHINTTTVTENDFCTSSDWPCAAGKKYSPRGPIQLTHNFNYGLAGQAIGEDLIQNPDLVEKDPIISFKTALWFWMSQHDNKPSCHDIVLNANSAANRIPNKGVIGNIISRAFGHDDFAVRSSSIGFYKRYCDMLGVSYGHDLKYWFDNTPSSEFQRIQMRVAA
With B1 as the molecule, how does the Minimum cytotoxic concentration [1] read?
The Minimum cytotoxic concentration was at least 100 µM.

And the EC50 (Human Coronavirus (229E))?
The EC50 was 0.4 µM.
